The record followed here is patent US9624164B2, “Phenyl carbamate compounds for use in preventing or treating epilepsy” (Bio-Pharm Solutions Co., Ltd., priority 2011, dated 2017).

Like-named read-outs stand apart in the source and are kept apart here.

Holding throughout (format): in vivo
For one series, the system named is mice. Put plainly: Measurement of neurotoxicity (rotarod, Dunham and Miya). The settings on record: protective index. How it is done: The measurement of neurotoxicity of the test compounds was conducted by the method of Dunham and Miya [Dunham, N. W. and Miya, T. S. 1957. A note on a simple apparatus for detecting neurological deficit in rats and mice. J. Am. Pharm. Assoc. (Baltimore) 46: 208-209]. In the method, motor abilities of the test animals can be determined by observing whether the test animals can walk without falling from a rotator, thereby determining the value of neurotoxicity of each compound. […] They were pre-trained on the rotarod (Rotarod; Columbus instrument, rota-max, USA) at 6 rpm for 5 min 24 hr prior to the test. The peak time was determined by administration test material's random dose for 0.5, 1, 2, 4 hour. […] The ratio of TD50 to ED50 (TD50/ED50) is called as a protective index, and useful as a parameter for comparison of pharmaceutical efficacy and neurotoxicity.
A general note: The rotarod test checks motor coordination on a turning rod.

Series [1] deals with male ICR mice. In words: scPTZ test (subcutaneous pentylenetetrazol-induced clonic seizure), intraperitoneal administration, mice. Conditions: ip. How it is done: (§1) After Peak time (0.5, 1, 2 and 4 hr) from the administration, PTZ (Pentylenetetrazol) was administered subcutaneously in the concentration capable of inducing 97% intermittent convulsions (mice: 100˜110 mg/kg·bw, 100 ul/g, or rats: 90˜110 mg/kg·bw, 20 ul/g). If clonic seizure was not observed for at least 3 seconds in the PTZ administered animal, it can be considered that the test compound has anti-epilepsy activity.

Series [2] deals with male ICR mice. Put plainly: MES test (maximal electroshock, corneal electrodes), oral administration, mice. On the technique in general: In the maximal electroshock model the usual endpoint is tonic extension of the hind limbs.
Series [3] deals with male ICR mice. In words: scPTZ test (subcutaneous pentylenetetrazol-induced clonic seizure), intraperitoneal administration, mice. The settings on record: Mouse, ip, read-out: Duration of scPTZ test ED50.
Series [4] concerns male SD rats. In words: scPTZ test (subcutaneous pentylenetetrazol-induced clonic seizure), intraperitoneal administration, rats. Conditions: ip; for ED50: Rat, read-out: Duration of scPTZ test ED50. On the procedure:
as §1

The test system of series [5] is male SD rats. Put plainly: MES test (maximal electroshock, corneal electrodes), oral administration, rats.
[6] abbreviates: Mus musculus, mice, at peak time, read-out: ScPTZ test(ip) ED50.

On to `CC(OC(N)=O)C(O)c1ccccc1Cl` (racemic) [Compound 3, 1-(2-chlorophenyl)-1-hydroxypropyl-2-carbamate], for which the “PI (TD50/ED50 in MES)” value in the series with mice worked out at 12.0. Moreover, the ED50 in the series with male ICR mice [1] (setting [6]) came to 15.3 mg/kg.
For `CCC(OC(N)=O)C(O)c1ccccc1Cl` (racemic) [Compound 8, 1-(2-chlorophenyl)-1-hydroxybutyl-2-carbamate], in the series with male ICR mice [2] (Mus musculus, injection amount 100 mg/kg, 4 mice, read-out: MES test(po) Protection %), the responders at 100 mg/kg stood at 100%.
`CCCCC(OC(N)=O)C(O)c1ccccc1Cl` (racemic) [Compound 14, 1-(2-chlorophenyl)-1-hydroxyhexyl-2-carbamate]: in the series on male ICR mice [2] (Mus musculus, injection amount 200 mg/kg, 4 mice, read-out: MES test(po) Protection %), the responders at 200 mg/kg stood at 100%.
For the compound `C[C@H](OC(N)=O)[C@@H](O)c1ccccc1Cl` [Compound 1, 1-(2-chlorophenyl)-(S)-1-hydroxypropyl-(S)-2-carbamate], the “PI (TD50/ED50 in MES)” value in the series with mice was determined as 16.8. Moreover, the efficacy duration time result in the series on male ICR mice [2] (MES test, mice) is listed as “at least 12 hours”; in the series with male ICR mice [1] (scPTZ test, mice) it was “at least 12 hours”; in the series with male SD rats [4] (scPTZ test, rats), “at least 12 hours”; in the series with male SD rats [5], “at least 12 hours”. The ED50 was determined as 52.2 mg/kg in the series on male ICR mice [3] (6 h); 80.7 mg/kg with male ICR mice [3] (8 h); 201 mg/kg in the series with male ICR mice [3] (12 h); 17.3 mg/kg in the series on male ICR mice [1] (Mouse, 0.5 h, read-out: Duration of scPTZ test ED50); 16.9 mg/kg in the series with male ICR mice [1] (Mouse, 1 h, read-out: Duration of scPTZ test ED50); 15.8 mg/kg with male ICR mice [1] (Mouse, 2 h, read-out: Duration of scPTZ test ED50). In addition, the ED50 worked out at 27.4 mg/kg with male ICR mice [1] (Mouse, 4 h, read-out: Duration of scPTZ test ED50); 15.8 mg/kg in the series on male ICR mice [1] (setting [6]); 18.9 mg/kg in the series with male SD rats [4] (0.5 h); 14.5 mg/kg in the series with male SD rats [4] (1 h); 21 mg/kg in the series with male SD rats [4] (2 h); 31 mg/kg with male SD rats [4] (4 h). Besides, the ED50 in the series on male SD rats [4] (8 h) was 41.3 mg/kg; in the series on male SD rats [4] (12 h), 76.7 mg/kg.
On to `C[C@@H](OC(N)=O)[C@H](O)c1ccccc1Cl` [Compound 2, 1-(2-chlorophenyl)-(R)-1-hydroxypropyl-(R)-2-carbamate], for which the “PI (TD50/ED50 in MES)” value in the series with mice was determined as 7.3. Further, the ED50 with male ICR mice [1] (setting [6]) came out at 38.8 mg/kg.
The corresponding values for `C[C@H](OC(N)=O)[C@H](O)c1ccccc1Cl` [Compound 5, 1-(2-chlorophenyl)-(R)-1-hydroxypropyl-(S)-2-carbamate] are 3.3 and 15 mg/kg.
For the compound `CC[C@H](OC(N)=O)[C@@H](O)c1ccccc1Cl` [Compound 6, 1-(2-chlorophenyl)-(S)-1-hydroxybutyl-(S)-2-carbamate], the ED50 with male ICR mice [1] (setting [6]) stood at 17.9 mg/kg.
For `C[C@H](OC(N)=O)[C@@H](O)c1c(Cl)cccc1Cl` [Compound 37, 1-(2,6-dichlorophenyl)-(S)-1-hydroxypropyl-(S)-2-carbamate], the “PI (TD50/ED50 in MES)” value with mice turned out to be 5.1. Also, the ED50 in the series with male ICR mice [1] (setting [6]) amounted to 25.7 mg/kg.
Regarding `CC[C@H](OC(N)=O)[C@@H](O)c1ccc(Cl)cc1Cl` [Compound 39, 1-(2,4-dichlorophenyl)-(S)-1-hydroxybutyl-(S)-2-carbamate], the ED50 in the series on male ICR mice [1] (setting [6]) turned out to be 24.3 mg/kg.
With `C[C@H](OC(N)=O)[C@@H](O)c1ccccc1F` [Compound 63, 1-(2-fluorophenyl)-(S)-1-hydroxypropyl-(S)-2-carbamate], the responders at 50 mg/kg with male ICR mice [2] (Mus musculus, injection amount 50 mg/kg, 4 mice, read-out: MES test(po) Protection %) was determined as 100%.
